Patent US8192962B2, “Processes for detecting toxic substances” (Daikin Industries, Ltd., priority 2001, dated 2012)

Test system: Metabolism protein genes
Test: DNA chip mRNA expression in yeast, metabolism protein genes (Table 7)
Format: cell-based, Saccharomyces cerevisiae S288C
Summary of the method: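 S. cerevisiae S288C grown at 25° C in YPD were exposed in log phase for two hours to one toxic chemical at a growth-inhibiting, non-lethal concentration; untreated cells served as control. Poly(A) mRNA was reverse-transcribed with Cy3/Cy5-dUTP and hybridized to a whole-genome yeast DNA chip at 65° C for over 12 hours; values are fluorescence ratios versus untreated.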

`COc1cc(CNC(=O)CCCCC=CC(C)C)ccc1O` [(12), 8-methyl-N-vanillyl-6-nonenamide] was tested, and the “level of expressed mRNA in the presence/in the absence of chemical substance” value (yeast gene YJR143C) was 0.6, the “The level of expressed mRNA in the presence of chemical substance/The level of expressed mRNA in the absence of chemical substance” value (yeast gene YJR148W) was 0.8 and the “The level of expressed mRNA in the presence of chemical substance/The level of expressed mRNA in the absence of chemical substance” value (yeast gene YJR155W) was 1.0. The “The level of expressed mRNA in the presence of chemical substance/The level of expressed mRNA in the absence of chemical substance” value (yeast gene YKL035W) was 1.0, the “level of expressed mRNA in the presence/in the absence of chemical substance” value (yeast gene YKL060C) was 1.3 and the “The level of expressed mRNA in the presence of chemical substance/The level of expressed mRNA in the absence of chemical substance” value (yeast gene YKL091C) was 1.3. The “The level of expressed mRNA in the presence of chemical substance/The level of expressed mRNA in the absence of chemical substance” value (yeast gene YKL104C) was 1.6, the “level of expressed mRNA in the presence/in the absence of chemical substance” value (yeast gene YKL148C) was 0.8 and the “The level of expressed mRNA in the presence of chemical substance/The level of expressed mRNA in the absence of chemical substance” value (yeast gene YKL152C) was 1.5. For the same molecule, the “level of expressed mRNA in the presence/in the absence of chemical substance” value (yeast gene YKL157W) was 1.0, the “The level of expressed mRNA in the presence of chemical substance/The level of expressed mRNA in the absence of chemical substance” value (yeast gene YKL213C) was 0.9 and the “The level of expressed mRNA in the presence of chemical substance/The level of expressed mRNA in the absence of chemical substance” value (yeast gene YKL215C) was 1.0. The “level of expressed mRNA in the presence/in the absence of chemical substance” value (yeast gene YKR034W) was 0.7, the “The level of expressed mRNA in the presence of chemical substance/The level of expressed mRNA in the absence of chemical substance” value (yeast gene YKR039W) was 1.5 and the “The level of expressed mRNA in the presence of chemical substance/The level of expressed mRNA in the absence of chemical substance” value (yeast gene YLL058W) was 1.0. For the same molecule, the “level of expressed mRNA in the presence/in the absence of chemical substance” value (yeast gene YLR006C) was 0.7, the “level of expressed mRNA in the presence/in the absence of chemical substance” value (yeast gene YLR044C) was 1.4 and the “level of expressed mRNA in the presence/in the absence of chemical substance” value (yeast gene YLR056W) was 0.9. For the same molecule, the “level of expressed mRNA in the presence/in the absence of chemical substance” value (yeast gene YLR058C) was 0.4, the “level of expressed mRNA in the presence/in the absence of chemical substance” value (yeast gene YLR081W) was 1.0 and the “level of expressed mRNA in the presence/in the absence of chemical substance” value (yeast gene YLR089C) was 0.6. For the same molecule, the “The level of expressed mRNA in the presence of chemical substance/The level of expressed mRNA in the absence of chemical substance” value (yeast gene YLR180W) was 0.6, the “The level of expressed mRNA in the presence of chemical substance/The level of expressed mRNA in the absence of chemical substance” value (yeast gene YLR273C) was 0.9 and the “level of expressed mRNA in the presence/in the absence of chemical substance” value (yeast gene YLR284C) was 0.6. For the same molecule, the “The level of expressed mRNA in the presence of chemical substance/The level of expressed mRNA in the absence of chemical substance” value (yeast gene YLR299W) was 1.0, the “The level of expressed mRNA in the presence of chemical substance/The level of expressed mRNA in the absence of chemical substance” value (yeast gene YLR300W) was 0.5 and the “level of expressed mRNA in the presence/in the absence of chemical substance” value (yeast gene YLR304C) was 1.0. For the same molecule, the “The level of expressed mRNA in the presence of chemical substance/The level of expressed mRNA in the absence of chemical substance” value (yeast gene YLR307W) was 0.7, the “The level of expressed mRNA in the presence of chemical substance/The level of expressed mRNA in the absence of chemical substance” value (yeast gene YLR348C) was 0.9 and the “level of expressed mRNA in the presence/in the absence of chemical substance” value (yeast gene YLR354C) was 1.2. The “level of expressed mRNA in the presence/in the absence of chemical substance” value (yeast gene YLR372W) was 0.6, the “level of expressed mRNA in the presence/in the absence of chemical substance” value (yeast gene YML022W) was 0.6 and the “The level of expressed mRNA in the presence of chemical substance/The level of expressed mRNA in the absence of chemical substance” value (yeast gene YML054C) was 1.8. The “The level of expressed mRNA in the presence of chemical substance/The level of expressed mRNA in the absence of chemical substance” value (yeast gene YML070W) was 1.3, the “The level of expressed mRNA in the presence of chemical substance/The level of expressed mRNA in the absence of chemical substance” value (yeast gene YML100W) was 1.2 and the “The level of expressed mRNA in the presence of chemical substance/The level of expressed mRNA in the absence of chemical substance” value (yeast gene YMR008C) was 1.1. For the same molecule, the “level of expressed mRNA in the presence/in the absence of chemical substance” value (yeast gene YMR011W) was 0.8, the “level of expressed mRNA in the presence/in the absence of chemical substance” value (yeast gene YMR015C) was 0.9 and the “The level of expressed mRNA in the presence of chemical substance/The level of expressed mRNA in the absence of chemical substance” value (yeast gene YMR020W) was 1.1. For the same molecule, the “level of expressed mRNA in the presence/in the absence of chemical substance” value (yeast gene YMR083W) was 0.7, the “The level of expressed mRNA in the presence of chemical substance/The level of expressed mRNA in the absence of chemical substance” value (yeast gene YMR105C) was 1.7 and the “The level of expressed mRNA in the presence of chemical substance/The level of expressed mRNA in the absence of chemical substance” value (yeast gene YMR189W) was 0.6. The “level of expressed mRNA in the presence/in the absence of chemical substance” value (yeast gene YMR205C) was 1.1, the “level of expressed mRNA in the presence/in the absence of chemical substance” value (yeast gene YMR261C) was 0.9 and the “The level of expressed mRNA in the presence of chemical substance/The level of expressed mRNA in the absence of chemical substance” value (yeast gene YMR271C) was 1.3. The “The level of expressed mRNA in the presence of chemical substance/The level of expressed mRNA in the absence of chemical substance” value (yeast gene YMR296C) was 0.8, the “level of expressed mRNA in the presence/in the absence of chemical substance” value (yeast gene YMR323W) was 1.2 and the “The level of expressed mRNA in the presence of chemical substance/The level of expressed mRNA in the absence of chemical substance” value (yeast gene YNL012W) was 1.3. The “level of expressed mRNA in the presence/in the absence of chemical substance” value (yeast gene YNL025C) was 0.8, the “The level of expressed mRNA in the presence of chemical substance/The level of expressed mRNA in the absence of chemical substance” value (yeast gene YNL045W) was 0.9 and the “The level of expressed mRNA in the presence of chemical substance/The level of expressed mRNA in the absence of chemical substance” value (yeast gene YNL104C) was 1.1. The “The level of expressed mRNA in the presence of chemical substance/The level of expressed mRNA in the absence of chemical substance” value (yeast gene YNL106C) was 0.8, the “The level of expressed mRNA in the presence of chemical substance/The level of expressed mRNA in the absence of chemical substance” value (yeast gene YNL169C) was 1.0 and the “level of expressed mRNA in the presence/in the absence of chemical substance” value (yeast gene YNL192W) was 1.1. For the same molecule, the “The level of expressed mRNA in the presence of chemical substance/The level of expressed mRNA in the absence of chemical substance” value (yeast gene YNL231C) was 1.8, the “The level of expressed mRNA in the presence of chemical substance/The level of expressed mRNA in the absence of chemical substance” value (yeast gene YNL322C) was 0.7 and the “The level of expressed mRNA in the presence of chemical substance/The level of expressed mRNA in the absence of chemical substance” value (yeast gene YNL331C) was 0.9. For the same molecule, the “The level of expressed mRNA in the presence of chemical substance/The level of expressed mRNA in the absence of chemical substance” value (yeast gene YNL332W) was 1.2, the “The level of expressed mRNA in the presence of chemical substance/The level of expressed mRNA in the absence of chemical substance” value (yeast gene YNR019W) was 1.0 and the “The level of expressed mRNA in the presence of chemical substance/The level of expressed mRNA in the absence of chemical substance” value (yeast gene YNR033W) was 1.1. The “The level of expressed mRNA in the presence of chemical substance/The level of expressed mRNA in the absence of chemical substance” value (yeast gene YNR059W) was 0.8, the “The level of expressed mRNA in the presence of chemical substance/The level of expressed mRNA in the absence of chemical substance” value (yeast gene YOL058W) was 1.3 and the “level of expressed mRNA in the presence/in the absence of chemical substance” value (yeast gene YOL086C) was 1.3. For the same molecule, the “level of expressed mRNA in the presence/in the absence of chemical substance” value (yeast gene YOL108C) was 1.0, the “level of expressed mRNA in the presence/in the absence of chemical substance” value (yeast gene YOL116W) was 0.6 and the “The level of expressed mRNA in the presence of chemical substance/The level of expressed mRNA in the absence of chemical substance” value (yeast gene YOL126C) was 1.1. For the same molecule, the “The level of expressed mRNA in the presence of chemical substance/The level of expressed mRNA in the absence of chemical substance” value (yeast gene YOL153C) was 1.9, the “level of expressed mRNA in the presence/in the absence of chemical substance” value (yeast gene YOL156W) was 0.9 and the “The level of expressed mRNA in the presence of chemical substance/The level of expressed mRNA in the absence of chemical substance” value (yeast gene YOL165C) was 0.8. For the same molecule, the “level of expressed mRNA in the presence/in the absence of chemical substance” value (yeast gene YOR002W) was 0.5, the “level of expressed mRNA in the presence/in the absence of chemical substance” value (yeast gene YOR085W) was 0.8 and the “The level of expressed mRNA in the presence of chemical substance/The level of expressed mRNA in the absence of chemical substance” value (yeast gene YOR099W) was 1.1. The “level of expressed mRNA in the presence/in the absence of chemical substance” value (yeast gene YOR103C) was 1.2, the “level of expressed mRNA in the presence/in the absence of chemical substance” value (yeast gene YOR108W) was 0.7 and the “level of expressed mRNA in the presence/in the absence of chemical substance” value (yeast gene YOR128C) was 0.5. The “The level of expressed mRNA in the presence of chemical substance/The level of expressed mRNA in the absence of chemical substance” value (yeast gene YOR130C) was 0.9, the “level of expressed mRNA in the presence/in the absence of chemical substance” value (yeast gene YOR142W) was 0.8 and the “level of expressed mRNA in the presence/in the absence of chemical substance” value (yeast gene YOR176W) was 1.3. The “level of expressed mRNA in the presence/in the absence of chemical substance” value (yeast gene YOR178C) was 1.7, the “level of expressed mRNA in the presence/in the absence of chemical substance” value (yeast gene YOR251C) was 0.9 and the “The level of expressed mRNA in the presence of chemical substance/The level of expressed mRNA in the absence of chemical substance” value (yeast gene YOR336W) was 1.0. The “The level of expressed mRNA in the presence of chemical substance/The level of expressed mRNA in the absence of chemical substance” value (yeast gene YOR347C) was 1.2, the “level of expressed mRNA in the presence/in the absence of chemical substance” value (yeast gene YOR348C) was 0.7 and the “The level of expressed mRNA in the presence of chemical substance/The level of expressed mRNA in the absence of chemical substance” value (yeast gene YPL017C) was 1.0. The “level of expressed mRNA in the presence/in the absence of chemical substance” value (yeast gene YPL028W) was 1.4, the “level of expressed mRNA in the presence/in the absence of chemical substance” value (yeast gene YPL057C) was 1.0 and the “level of expressed mRNA in the presence/in the absence of chemical substance” value (yeast gene YPL135W) was 1.1. For the same molecule, the “level of expressed mRNA in the presence/in the absence of chemical substance” value (yeast gene YPL148C) was 0.7, the “The level of expressed mRNA in the presence of chemical substance/The level of expressed mRNA in the absence of chemical substance” value (yeast gene YPR026W) was 1.2 and the “level of expressed mRNA in the presence/in the absence of chemical substance” value (yeast gene YPR113W) was 0.7. The “level of expressed mRNA in the presence/in the absence of chemical substance” value (yeast gene YPR165W) was 0.8, the “The level of expressed mRNA in the presence of chemical substance/The level of expressed mRNA in the absence of chemical substance” value (yeast gene YPR167C) was 1.3 and the “level of expressed mRNA in the presence/in the absence of chemical substance” value (yeast gene YPR183W) was 1.2.
